# Data reported in patent US12180187B2, “1-phenyl-5-azinylpyrazolyl-3-oxyalkyl acids and their use for controlling unwanted plant growth” (BAYER AKTIENGESELLSCHAFT, priority 2019, dated 2024).
# Tests used:
# AVEFA [1] = test: Post-emergence action at 320 g/ha against AVEFA; assay type: in vivo; conditions: visual rating about 3 weeks after treatment vs untreated controls
# Excerpt: (§1) Accordingly, the compounds of the invention have good herbicidal action against a broad spectrum of weed grasses and broad-leaved weeds and are therefore suitable for controlling unwanted vegetation by the post-emergence method. • b) Seeds of monocotyledonous and dicotyledonous weeds and crop plants are placed in sandy loam in plastic or organic planting pots, covered with soil and cultivated in a greenhouse under controlled growth conditions. 2 to 3 weeks after sowing, the test plants are treated at the one-leaf stage. The compounds of the invention, formulated in the form of wettable powders (WP) or as emulsion concentrates (EC), are then sprayed onto the green parts of the plants as aqueous suspension or emulsion with addition of 0.5% additive at a water application rate of 600 l/ha (converted). After the test plants have been kept in the greenhouse under optimum growth conditions for about 3 weeks, the activity of the preparations is rated visually in comparison to untreated controls. For example, 100% activity=the plants have died, 0% activity=like control plants. Tables 39 to 49 below show the effects of selected compounds of the general formula (I) according to Tables 1 and 2 on various harmful plants and at an application rate corresponding to 320 g/ha, which were obtained by the experimental procedure mentioned above.
# DIGSA [2] = test: Post-emergence action at 320 g/ha against DIGSA; assay type: in vivo, Digitaria sanguinalis; conditions: dosage 320 g/ha, visual rating about 3 weeks after treatment vs untreated controls (100% = plants died)
# Excerpt: as §1
# VIOTR [3] = test: Pre-emergence action at 320 g/ha against VIOTR; assay type: in vivo, Viola tricolor; conditions: dosage 320 g/ha
# In short: (§2)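 Visual % scoring at about 3 weeks post-treatment against untreated pots (0% = like control, 100% = dead), greenhouse-grown. Compounds applied at 320 g/ha as aqueous WP/EC suspension or emulsion plus 0.5% additive, 600 l/ha water, onto covering soil of freshly sown pots before emergence.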
# AMARE [4] = test: Pre-emergence action at 320 g/ha against AMARE; assay type: in vivo, Amaranthus retroflexus; conditions: visual scoring after about 3 weeks vs untreated controls
# In short: as §2
# VERPE = test: Pre-emergence action at 320 g/ha against VERPE; assay type: in vivo, Veronica persica; conditions: visual scoring after about 3 weeks vs untreated controls
# In short: as §2
# AMARE [5] = test: Post-emergence action at 320 g/ha against AMARE; assay type: in vivo, Amaranthus retroflexus; conditions: visual rating about 3 weeks after treatment vs untreated controls
# Excerpt: as §1
# ABUTH = test: Post-emergence action at 320 g/ha against ABUTH; assay type: in vivo, Abutilon theophrasti; conditions: visual rating about 3 weeks after treatment vs untreated controls
# Excerpt: as §1
# VIOTR [6] = test: Post-emergence action at 320 g/ha against VIOTR; assay type: in vivo, Viola tricolor; conditions: visual rating about 3 weeks after treatment vs untreated controls
# Excerpt: as §1
# ALOMY [7] = test: Post-emergence action against ALOMY, 320 g/ha; assay type: in vivo, Alopecurus myosuroides; conditions: dosage 320 g/ha, visual rating about 3 weeks after treatment vs untreated controls (100% = plants died)
# Excerpt: as §1
# ECHCG = test: Post-emergence action at 320 g/ha against ECHCG; assay type: in vivo, Echinochloa crus-galli; conditions: dosage 320 g/ha, visual rating about 3 weeks after treatment vs untreated controls (100% = plants died)
# Excerpt: as §1
# POLCO [8] = test: Post-emergence action at 320 g/ha against POLCO; assay type: in vivo, Fallopia convolvulus (Polygonum convolvulus); conditions: visual rating about 3 weeks after treatment vs untreated controls
# Excerpt: as §1
# SETVI [9] = test: Pre-emergence action at 320 g/ha against SETVI; assay type: in vivo, Setaria viridis; conditions: visual scoring after about 3 weeks vs untreated controls
# In short: as §2
# AVEFA [10] = test: Pre-emergence action at 320 g/ha against AVEFA; assay type: in vivo; conditions: visual scoring after about 3 weeks vs untreated controls
# In short: as §2
# SETVI [11] = test: Post-emergence action at 320 g/ha against SETVI; assay type: in vivo, Setaria viridis; conditions: visual rating about 3 weeks after treatment vs untreated controls
# Excerpt: as §1
# DIGSA [12] = test: Pre-emergence action at 320 g/ha against DIGSA; assay type: in vivo, Digitaria sanguinalis; conditions: visual scoring after about 3 weeks vs untreated controls
# In short: as §2
# PHBPU = test: Post-emergence action at 320 g/ha against PHBPU; assay type: in vivo; conditions: visual rating about 3 weeks after treatment vs untreated controls
# Excerpt: as §1
# POLCO [13] = test: Pre-emergence action at 320 g/ha against POLCO; assay type: in vivo, Fallopia convolvulus (Polygonum convolvulus); conditions: visual scoring after about 3 weeks vs untreated controls
# In short: as §2
# ECHGC = test: Pre-emergence action at 320 g/ha against ECHGC; assay type: in vivo, Echinochloa crus-galli; conditions: visual scoring after about 3 weeks vs untreated controls
# In short: as §2
# ALOMY [14] = test: Pre-emergence action at 320 g/ha against ALOMY; assay type: in vivo, Alopecurus myosuroides; conditions: scored visually after about 3 weeks vs untreated controls (100% = plants have died)
# In short: as §2
# LOLRI = test: Pre-emergence action at 320 g/ha against LOLRI; assay type: in vivo, Lolium rigidum; conditions: visual scoring after about 3 weeks vs untreated controls
# In short: as §2
compound,measurement,setting,value
CCOC(=O)COc1nn(-c2ccccc2F)c(-c2ccc(F)nc2)c1F [VII-034],Post-emergence action against AVEFA in %,AVEFA [1],90%
same,Post-emergence action at 320 g/ha against DIGSA in %,DIGSA [2],90%
same,Pre-emergence action against VIOTR in %,VIOTR [3],100%
same,Pre-emergence action against AMARE in %,AMARE [4],100%
same,Pre-emergence action against VERPE in %,VERPE,80%
same,Post-emergence action against AMARE in %,AMARE [5],80%
same,Post-emergence action against ABUTH in %,ABUTH,80%
same,Post-emergence action against VIOTR in %,VIOTR [6],80%
same,Post-emergence action against ALOMY,ALOMY [7],90%
same,Post-emergence action at 320 g/ha against ECHCG in %,ECHCG,90%
same,Post-emergence action against POLCO in %,POLCO [8],80%
same,Pre-emergence action against SETVI in %,SETVI [9],100%
same,Pre-emergence action against AVEFA in %,AVEFA [10],90%
same,Post-emergence action against SETVI in %,SETVI [11],90%
same,Pre-emergence action against DIGSA in %,DIGSA [12],100%
same,Post-emergence action against PHBPU in %,PHBPU,90%
same,Pre-emergence action against POLCO in %,POLCO [13],90%
same,Pre-emergence action against ECHGC in %,ECHGC,90%
same,Pre-emergence action at 320 g/ha against ALOMY in %,ALOMY [14],90%
same,Pre-emergence action against LOLRI in %,LOLRI,90%
